Measurements from patent EP0528615A1, “Cribrostatins 1 and 2” (ARIZONA BOARD OF REGENTS, priority 1991, dated 1993).
Values after ≈ are worked out from the molar mass of the structure shown.

Assays:
[1] = system: NCI human cancer cell lines; assay: NCI human cancer cell lines, cytostatic activity (general statement); assay type: cell-based
Description: (§1) Presently the Cribrochalina sp. constituents are undergoing detailed antineoplastic evaluation. […] (See: Boyd, status of the NCI preclinical antitumor drug discovery screen: implications for selection of new agents for clinical trial. In: DeVita et al., Principles and Practices of Oncology, update series, Vol. 3, No. 10, Lippincott, Philadelphia 1989, pp1-12; and Boyd et al., Data display and analysis strategies from NCI disease oriented in vitro antitumor drug screen. In:Valeriote et al., Antitumor Drug Discovery and Development, Kluwer Academic Press, Amsterdam, 1990.) The human tumor cell line panel currently used for these studies consists of a diverse array of 60 different cell lines representing eight major cancer subtypes.

[2] = system: non-small lung cancer (A549/ATCC, HOP-18, and NCI-H460); assay: NCI panel cell lines, non-small lung cancer; assay type: cell-based, human; settings: non-small lung cancer (A549/ATCC, HOP-18, NCI-H460)
Description: as §1

[3] = system: P388 murine lymphocytic leukemia; assay: in vitro PS leukemia cell growth inhibition (NCI P388 protocol); assay type: cell-based; settings: Mus musculus, isolated pure compounds, read-out: PS ED₅₀
Description: In early research devoted to the first systematic investigation of marine animals as new sources of potential anticancer drugs the phylum Porifera rapidly became of increasing importance. Subsequent detection of antineoplastic activity in some of these sponge species led to the isolation of such cell growth inhibitory compounds, as macrocyclic lactones, pyrroles, peptides, and proteins. Meanwhile the isolation of heterocyclic marine sponge constituents such as pyrroles, imidazoles, oxazoles, indoles, pyridines, quinolizidines, pteridines, acridines, other nitrogen systems and quinones has been rapidly accelerating. So far ten isoquinolinequinones have been isolated from blue species of the sponge genera Reniera and Xestospongia. In 1986 an exploratory survey of marine Porifera off remote islands in the Republic of the Maldives was conducted which located a deep blue colored specimen of Cribrochalina sp. (Haplosclerida order) that afforded an orange ethanol extract. The encrusting sponge was found in areas of strong (and dangerous) currents to -45m in the South side of East reef passages and yielded and ethanol extract that provided 40% life extension (at mg/kg) against the U.S. National Cancer Institute's in vivo murine P388 lymphocytic leukemia (PS system). […]

[4] = system: melanoma cancer line (LOX-1MCI; MALME-3M; M14; M19-MEL; SK-MEL-2; KS-MEL-28; SK-MEL-5; UACC_257; UACC-62); assay type: cell-based, human
Description: as §1

colon cancer (CoLo 205) = assay: NCI panel cell lines, colon cancer; assay type: cell-based, human
Description: as §1

Compound	cytostatic properties [1]	result in NCI panel cell line [2]	IC50 [3] [µg/mL]	LC₅₀ [4]	sensitivity relative to panel mean ([4]; all nine melanoma lines of the 60 cell line panel)	result in NCI panel cell line ([4]; melanoma (MALME-3M, M14, M19-MEL, SK-MEL-2, SK-MEL-28, UACC-257, UACC-62))	result in NCI panel cell line (colon cancer (CoLo 205))
CC1=C(N)C(=O)c2c(ccnc2C)C1=O [Cribrostatin 1]	cytostatic properties	especially favorable results	1.58 (≈ 7.81 µM)	10⁻⁵ - 10⁻⁶	sensitivity greater than the panel mean	especially favorable results	especially favorable results
CCOC1=C(C)C(=O)c2cc(=O)n(C)cc2C1=O [Cribrostatin 2]	cytostatic properties		2.73 (≈ 11 µM)				
